Laboratory results reported in patent US20050209220A1, “Treatment of peripheral neuropathy” (priority 2004, published 2005).
Structures can show the parent of a compound that is named as a salt.

Tested on: diabetic patient with neuropathy of the lower extremities
Test: Case reports: diabetic patients with neuropathy / pain of the lower extremities
Format: in vivo, human
Experimental: 2. A diabetic patient with severe pains in their legs reported that it was very difficult for them to sleep with the pain. At first, they were instructed to take the one-half the regimen described in Example 1, that is 10 mgs of desipramine and 1 mg of fluphenazine at bedtime. […] 3. A diabetic patient with neuropathy of the lower extremities was prescribed 10 mgs of desipramine alone orally every twelve hours. […] 4. A diabetic patient with severe pain in the lower legs and feet was instructed to take 1 mg of fluphenazine hydrochloride orally every twelve hours beginning at bedtime. […] 5. A diabetic patient with severe lower extremity neuropathy manifested as pain in the lower legs and feet was instructed to take 2 mgs of fluphenazine hydrochloride orally every twelve hours beginning at bedtime.

CNCCCN1c2ccccc2CCc2ccccc21 [desipramine]
patient-reported pain reduction (diabetic patient (Example 3), desipramine alone, 10 mgs orally every twelve hours (20 mgs/day)): lack of effectiveness in reducing pain | patient-reported pain reduction (diabetic patient (Example 3), desipramine alone, higher dosage of 40 mgs per day): lack of effectiveness in reducing pain

OCCN1CCN(CCCN2c3ccccc3Sc3ccc(C(F)(F)F)cc32)CC1 [fluphenazine hydrochloride]
patient-reported pain reduction (diabetic patient (Example 4), fluphenazine hydrochloride alone, 1 mg orally every twelve hours, after two weeks): somewhat of an improvement in pain reduction, but not complete elimination | patient-reported pain reduction (diabetic patient (Example 5), fluphenazine hydrochloride alone, 2 mgs orally every twelve hours, after two weeks): somewhat of an improvement in pain reduction, but not complete elimination | patient-reported pain reduction (diabetic patient (Example 5), fluphenazine hydrochloride alone, 4 mgs every twelve hours): substantial improvement in reducing the severity of pain
